Laboratory results taken from BindingDB's records for doi:10.1016/j.bmc.2017.07.045 (Punjabi University, 2017).

Assay: Inhibition of P2Y12 in human platelet rich plasma assessed as reduction in ADP-induced platelet aggregation pre-incubated before ADP addition and measured after 10 mins by Bruker spectrophotometry

SMILES	IC50 [µM]
CCCn1nc2cccc([N+](=O)[O-])c2n1	1320
O=[N+]([O-])c1cccc2c1nnn2Cc1ccccc1	810
Cn1nnc2c([N+](=O)[O-])cccc21	1840
Cn1nc2cccc([N+](=O)[O-])c2n1	1960
Cn1nnc2cccc([N+](=O)[O-])c21	1800
CCn1nc2cccc([N+](=O)[O-])c2n1	1620
CCCn1nnc2c([N+](=O)[O-])cccc21	1300
CCCCn1nnc2c([N+](=O)[O-])cccc21	1050
CCCCCn1nnc2c([N+](=O)[O-])cccc21	1070
CCCCCn1nc2cccc([N+](=O)[O-])c2n1	1020
CCCCCCn1nnc2c([N+](=O)[O-])cccc21	1040
CCCCCCCn1nnc2c([N+](=O)[O-])cccc21	950
CCCCCCCn1nc2cccc([N+](=O)[O-])c2n1	930
CCCCCCCCn1nnc2c([N+](=O)[O-])cccc21	940
O=[N+]([O-])c1cccc2c1nnn2CCCCl	910
O=[N+]([O-])c1cccc2nn(CCCCl)nc12	1260
O=[N+]([O-])c1cccc2nn(Cc3ccccc3)nc12	820
Cc1ccc(S(=O)(=O)n2nnc3c([N+](=O)[O-])cccc32)cc1	860
CCn1nnc2c([N+](=O)[O-])cccc21	1500
CCCCn1nc2cccc([N+](=O)[O-])c2n1	1070
CCCCCCn1nc2cccc([N+](=O)[O-])c2n1	940
CCCCCCCCn1nc2cccc([N+](=O)[O-])c2n1	920
O=C(c1ccccc1)n1nnc2c([N+](=O)[O-])cccc21	650
CCCSc1nc(N[C@@H]2C[C@H]2c2ccc(F)c(F)c2)c2nnn([C@@H]3C[C@H](OCCO)[C@@H](O)[C@H]3O)c2n1 [AR-C126532XX]	0.32
c1ccc2[nH]nnc2c1 [CHEBI:75331]	7430
